From the NIST ThermoML archive (doi:10.1016/j.jct.2013.01.012)
± gives the expanded uncertainty stated by the source.

Key:
[1] = refractive index (Na D-line) (dimensionless); mn = molality of the nth substance listed, in mol/kg; conditions: 101 kPa, Liquid, Standard Abbe refractometry
[2] = mn = molality of the nth substance listed, in mol/kg; conditions: 101 kPa, Liquid; for speed of sound: Sing-around technique in a fixed-path interferometer; for mass density: Vibrating tube method

O=P([O-])([O-])[O-].[Na+].[Na+].[Na+] [trisodium phosphate] + O
Conditions | mass density, 298.15 K [kg/m3] | mass density, 303.15 K [kg/m3] | mass density, 308.15 K [kg/m3] | refractive index, 298.15 K | refractive index, 303.15 K | refractive index, 308.15 K | speed of sound, 298.15 K [m/s] | speed of sound, 303.15 K [m/s] | speed of sound, 308.15 K [m/s]
[1], m1 = 0.1 | – | – | – | 1.3365 ± 0.0004 | 1.3358 ± 0.0004 | 1.3353 ± 0.0004 | – | – | –
[1], m1 = 0.3 | – | – | – | 1.3439 ± 0.0004 | 1.3431 ± 0.0004 | 1.3425 ± 0.0004 | – | – | –
[1], m1 = 0.5 | – | – | – | 1.3515 ± 0.0004 | 1.3506 ± 0.0004 | 1.35 ± 0.0004 | – | – | –
[1], m1 = 0.7 | – | – | – | 1.3588 ± 0.0004 | 1.3581 ± 0.0004 | 1.3574 ± 0.0004 | – | – | –
[1], m1 = 0.9 | – | – | – | 1.3664 ± 0.0004 | 1.3671 ± 0.0004 | 1.3653 ± 0.0004 | – | – | –
[2], m1 = 0.1 | 1015.18 ± 0.2 | 1013.87 ± 0.2 | 1012.26 ± 0.2 | – | – | – | 1519.7 ± 0.98 | 1531.5 ± 0.99 | 1541.8 ± 1
[2], m1 = 0.3 | 1052.41 ± 0.21 | 1051.09 ± 0.21 | 1049.48 ± 0.21 | – | – | – | 1563.1 ± 1 | 1573.9 ± 1 | 1583.5 ± 1
[2], m1 = 0.5 | 1091.06 ± 0.22 | 1090.82 ± 0.22 | 1089.21 ± 0.23 | – | – | – | 1608.9 ± 1.1 | 1619.9 ± 1.1 | 1628.3 ± 1.1
[2], m1 = 0.7 | 1130.08 ± 0.24 | 1129.51 ± 0.24 | 1131.08 ± 0.24 | – | – | – | 1658.1 ± 1.1 | 1667.3 ± 1.1 | 1677.7 ± 1.1
[2], m1 = 0.9 | 1173.67 ± 0.27 | 1169.99 ± 0.26 | 1167.45 ± 0.24 | – | – | – | 1716.9 ± 1.1 | 1722.6 ± 1.1 | 1727.6 ± 1.1

O=P([O-])(O)O.[Na+] [sodium dihydrogen phosphate] + O
Conditions | mass density, 298.15 K [kg/m3] | mass density, 303.15 K [kg/m3] | mass density, 308.15 K [kg/m3] | refractive index, 298.15 K | refractive index, 303.15 K | refractive index, 308.15 K | speed of sound, 298.15 K [m/s] | speed of sound, 303.15 K [m/s] | speed of sound, 308.15 K [m/s]
[1], m1 = 0.1 | – | – | – | 1.3346 ± 0.0004 | 1.334 ± 0.0004 | 1.3335 ± 0.0004 | – | – | –
[1], m1 = 0.3 | – | – | – | 1.3381 ± 0.0004 | 1.3376 ± 0.0004 | 1.3371 ± 0.0004 | – | – | –
[1], m1 = 0.5 | – | – | – | 1.3408 ± 0.0004 | 1.3412 ± 0.001 | 1.3398 ± 0.0004 | – | – | –
[1], m1 = 0.7 | – | – | – | 1.344 ± 0.0004 | 1.3435 ± 0.0004 | 1.3428 ± 0.0004 | – | – | –
[1], m1 = 0.9 | – | – | – | 1.3492 ± 0.002 | 1.3473 ± 0.0004 | 1.3466 ± 0.0004 | – | – | –
[2], m1 = 0.1 | 1006.23 ± 0.1 | 1005.17 ± 0.1 | 1004.2 ± 0.1 | – | – | – | 1507.1 ± 0.98 | 1519.2 ± 0.98 | 1529.8 ± 0.99
[2], m1 = 0.3 | 1024.26 ± 0.11 | 1022.91 ± 0.11 | 1021.13 ± 0.11 | – | – | – | 1527.2 ± 0.99 | 1538.5 ± 1 | 1548.1 ± 1
[2], m1 = 0.5 | 1043.03 ± 0.12 | 1041.67 ± 0.12 | 1039.97 ± 0.12 | – | – | – | 1547.3 ± 1 | 1558.2 ± 1 | 1567.3 ± 1
[2], m1 = 0.7 | 1062.08 ± 0.13 | 1060.86 ± 0.13 | 1060.09 ± 0.14 | – | – | – | 1567.7 ± 1 | 1577.8 ± 1 | 1587.9 ± 1
[2], m1 = 0.9 | 1081.28 ± 0.14 | 1079.48 ± 0.14 | 1080.28 ± 0.14 | – | – | – | 1587.8 ± 1 | 1579.2 ± 20 | 1608.1 ± 1.1

O=P([O-])([O-])O.[K+].[K+] [dipotassium hydrogen phosphate] + O
Conditions | mass density, 298.15 K [kg/m3] | mass density, 303.15 K [kg/m3] | mass density, 308.15 K [kg/m3] | refractive index, 298.15 K | refractive index, 303.15 K | refractive index, 308.15 K | speed of sound, 298.15 K [m/s] | speed of sound, 303.15 K [m/s] | speed of sound, 308.15 K [m/s]
[1], m1 = 0.1 | – | – | – | 1.3354 ± 0.0004 | 1.3346 ± 0.0004 | 1.334 ± 0.0004 | – | – | –
[1], m1 = 0.3 | – | – | – | 1.3404 ± 0.0004 | 1.3397 ± 0.0004 | 1.3392 ± 0.0004 | – | – | –
[1], m1 = 0.5 | – | – | – | 1.3456 ± 0.0004 | 1.3453 ± 0.0004 | 1.3445 ± 0.0004 | – | – | –
[1], m1 = 0.7 | – | – | – | 1.3506 ± 0.0004 | 1.35 ± 0.0004 | 1.3495 ± 0.0004 | – | – | –
[1], m1 = 0.9 | – | – | – | 1.3557 ± 0.0004 | 1.3554 ± 0.0004 | 1.3547 ± 0.0004 | – | – | –
[2], m1 = 0.1 | 1016.33 ± 0.14 | 1015.38 ± 0.14 | 1014.18 ± 0.13 | – | – | – | 1512.8 ± 0.98 | 1525.1 ± 0.98 | 1535.6 ± 0.99
[2], m1 = 0.3 | 1041.48 ± 0.16 | 1040.03 ± 0.16 | 1038.39 ± 0.15 | – | – | – | 1542.9 ± 0.99 | 1553.8 ± 1 | 1563.4 ± 1
[2], m1 = 0.5 | 1072.35 ± 0.18 | 1071.14 ± 0.18 | 1069.06 ± 0.18 | – | – | – | 1574.6 ± 1 | 1584.6 ± 1 | 1593.3 ± 1
[2], m1 = 0.7 | 1103.77 ± 0.19 | 1103.01 ± 0.19 | 1103.01 ± 0.19 | – | – | – | 1607.3 ± 1 | 1616.8 ± 1 | 1626 ± 1
[2], m1 = 0.9 | 1135.65 ± 0.2 | 1136.16 ± 0.2 | 1134.44 ± 0.2 | – | – | – | 1641.6 ± 1 | 1651.1 ± 1 | 1657.8 ± 1

O=P([O-])(O)O.[Li+] [lithium dihydrogen phosphate] + O
Conditions | mass density, 298.15 K [kg/m3] | mass density, 303.15 K [kg/m3] | mass density, 308.15 K [kg/m3] | refractive index, 298.15 K | refractive index, 303.15 K | refractive index, 308.15 K | speed of sound, 298.15 K [m/s] | speed of sound, 303.15 K [m/s] | speed of sound, 308.15 K [m/s]
[1], m1 = 0.1 | – | – | – | 1.3342 ± 0.0004 | 1.3332 ± 0.0004 | 1.3327 ± 0.0004 | – | – | –
[1], m1 = 0.3 | – | – | – | 1.3365 ± 0.0004 | 1.3363 ± 0.0004 | 1.3355 ± 0.0004 | – | – | –
[1], m1 = 0.5 | – | – | – | 1.3394 ± 0.0004 | 1.339 ± 0.0004 | 1.3387 ± 0.0004 | – | – | –
[1], m1 = 0.7 | – | – | – | 1.3421 ± 0.0004 | 1.3418 ± 0.0004 | 1.3414 ± 0.0004 | – | – | –
[1], m1 = 0.9 | – | – | – | 1.3452 ± 0.0004 | 1.3448 ± 0.0004 | 1.3444 ± 0.0004 | – | – | –
[2], m1 = 0.1 | 1004.55 ± 0.09 | 1003.21 ± 0.09 | 1001.59 ± 0.089 | – | – | – | 1506.5 ± 0.98 | 1518.5 ± 0.98 | 1528.8 ± 0.99
[2], m1 = 0.3 | 1018.97 ± 0.096 | 1017.71 ± 0.096 | 1016.05 ± 0.096 | – | – | – | 1525.5 ± 0.99 | 1536.8 ± 1 | 1546.5 ± 1
[2], m1 = 0.5 | 1033.8 ± 0.1 | 1032.57 ± 0.1 | 1031.29 ± 0.1 | – | – | – | 1544.1 ± 1 | 1555 ± 1 | 1564.5 ± 1
[2], m1 = 0.7 | 1048.96 ± 0.11 | 1048.1 ± 0.11 | 1046.58 ± 0.1 | – | – | – | 1569.2 ± 5 | 1573.7 ± 1 | 1582.6 ± 1
[2], m1 = 0.9 | 1064.91 ± 0.12 | 1063.79 ± 0.12 | 1055.48 ± 10 | – | – | – | 1582.6 ± 1 | 1593 ± 1 | 1593.1 ± 5
